Test results as given in ChEMBL document CHEMBL1142023, “Structure-activity relationships of dimeric PPAR agonists” (Bioorg Med Chem Lett, 2005).

Key:
[1] = molecular target: T1, Peroxisome proliferator-activated receptor delta (Homo sapiens, UniProt Q03181); assay: Effective concentration for human peroxisome proliferator-activated receptor delta
T1 sequence (Q03181 whole entry): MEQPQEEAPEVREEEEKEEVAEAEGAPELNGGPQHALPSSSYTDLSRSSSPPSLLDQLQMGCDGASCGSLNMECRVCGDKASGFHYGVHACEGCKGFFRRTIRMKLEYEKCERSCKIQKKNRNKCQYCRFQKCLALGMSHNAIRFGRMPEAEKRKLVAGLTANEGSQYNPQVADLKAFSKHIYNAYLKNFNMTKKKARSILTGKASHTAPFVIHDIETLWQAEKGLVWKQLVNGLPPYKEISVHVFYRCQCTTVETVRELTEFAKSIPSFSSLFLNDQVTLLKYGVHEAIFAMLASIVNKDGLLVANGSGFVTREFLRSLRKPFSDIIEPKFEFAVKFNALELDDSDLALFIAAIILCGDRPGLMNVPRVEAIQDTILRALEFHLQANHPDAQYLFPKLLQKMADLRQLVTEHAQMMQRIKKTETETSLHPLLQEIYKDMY

[2] = molecular target: T2, Peroxisome proliferator-activated receptor alpha (Homo sapiens, UniProt Q07869); assay: Effective concentration for human peroxisome proliferator-activated receptor alpha
T2 sequence (Q07869 whole entry): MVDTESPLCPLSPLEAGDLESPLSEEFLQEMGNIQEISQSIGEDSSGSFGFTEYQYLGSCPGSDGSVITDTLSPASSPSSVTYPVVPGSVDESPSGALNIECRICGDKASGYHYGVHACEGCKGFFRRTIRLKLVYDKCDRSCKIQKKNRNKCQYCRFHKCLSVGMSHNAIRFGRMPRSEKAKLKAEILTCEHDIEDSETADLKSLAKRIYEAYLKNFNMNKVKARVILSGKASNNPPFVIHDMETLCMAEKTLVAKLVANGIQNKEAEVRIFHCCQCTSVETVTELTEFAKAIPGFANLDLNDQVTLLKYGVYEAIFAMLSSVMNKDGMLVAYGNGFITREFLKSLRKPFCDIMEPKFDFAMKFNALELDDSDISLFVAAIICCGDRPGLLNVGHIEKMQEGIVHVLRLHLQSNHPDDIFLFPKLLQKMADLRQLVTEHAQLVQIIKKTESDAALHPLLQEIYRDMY

SMILES | EC50 [1] [nM] | EC50 [2] [nM]
CCO[C@H](Cc1ccc(OC/C=C(/C)C#Cc2ccc(-c3ccc(C#C/C(C)=C/COc4ccc(C[C@@H](OCC)C(=O)O)cc4)cc3)cc2)cc1)C(=O)O | 4100 | 1800
CCOC(Cc1ccc(OCC#CCOc2ccc(C[C@@H](OCC)C(=O)O)cc2)cc1)C(=O)O (single isomer, unassigned) |  | 9600
CCOC(Cc1ccc(OC/C=C/C#CC#C/C=C/COc2ccc(C[C@@H](OCC)C(=O)O)cc2)cc1)C(=O)O (single isomer, unassigned) | 15000 | 3700
CCOC(Cc1ccc(OC/C=C/c2ccccc2)cc1)C(=O)O (single isomer, unassigned) | 18000 | 1600
CCO[C@@H](Cc1ccc(OCc2ccc(COc3ccc(C[C@H](OCC)C(=O)O)cc3)cc2)cc1)C(=O)O |  | 15000
CCO[C@H](Cc1ccc(OC/C=C(\C)C#Cc2ccc3c(c2)C(=O)c2cc(C#C/C(C)=C/COc4ccc(C[C@@H](OCC)C(=O)O)cc4)ccc2-3)cc1)C(=O)O (stereo in doubt) |  | 2300
CCO[C@H](Cc1ccc(OC/C=C(\C)c2ccc(-c3ccc(/C(C)=C/COc4ccc(C[C@@H](OCC)C(=O)O)cc4)cc3)cc2)cc1)C(=O)O | 2100 | 6700
CCOC(Cc1ccc(OC/C=C(\C)C#Cc2ccc(C#C/C(C)=C/COc3ccc(C[C@@H](OCC)C(=O)O)cc3)cc2)cc1)C(=O)O (single isomer, unassigned) | 1800 | 1200

Stronger by EC50 [2], values ahead:

EC50 [1] [nM] | EC50 [2] [nM] | SMILES
19000 | 1100 | CCOC(Cc1ccc(OCC/C=C/c2ccccc2)cc1)C(=O)O (single isomer, unassigned)
2200 | 700 | CCOC(Cc1ccc(OC/C=C/C#Cc2ccc(C#C/C=C/COc3ccc(C[C@@H](OCC)C(=O)O)cc3)cc2)cc1)C(=O)O (single isomer, unassigned)
11000 | 300 | CCO[C@@H](Cc1ccc(OC/C=C(/C)C#Cc2ccccc2)cc1)C(=O)O
6900 | 70 | CCO[C@H](Cc1ccc(OC/C=C/C#Cc2ccccc2)cc1)C(=O)O
